Laboratory results published in PubChem BioAssay (NCI).
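Exposure lasted 48 hours, with cells grown in 96-well plates and compounds tested at five concentrations. GI50 is the concentration that inhibits growth by half. The concentration for full growth arrest is given as TGI.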

What was measured:
Test in all cases: NCI tumour cell line growth inhibition, 48 h
DU-145 prostate = system: DU-145 prostate
OVCAR-5 ovarian = system: OVCAR-5 ovarian
CCRF-CEM leukemia = system: CCRF-CEM leukemia
SW-620 colon = system: SW-620 colon
NCI-H522 lung = system: NCI-H522 lung
SNB-19 CNS = system: SNB-19 CNS
SR leukemia = system: SR leukemia
UACC-257 melanoma = system: UACC-257 melanoma
HL-60(TB) leukemia = system: HL-60(TB) leukemia
UACC-62 melanoma = system: UACC-62 melanoma
SN12C renal = system: SN12C renal
RXF 393 renal = system: RXF 393 renal
A549 NSCLC = system: A549 NSCLC
NCI-H460 lung = system: NCI-H460 lung
BT-549 breast = system: BT-549 breast
CAKI-1 renal = system: CAKI-1 renal
HCT-116 colon = system: HCT-116 colon
OVCAR-3 ovarian = system: OVCAR-3 ovarian
EKVX NSCLC = system: EKVX NSCLC
T-47D breast = system: T-47D breast
SF-268 CNS = system: SF-268 CNS
TK-10 renal = system: TK-10 renal
ACHN renal = system: ACHN renal
MDA-MB-435 = system: MDA-MB-435
SK-MEL-5 melanoma = system: SK-MEL-5 melanoma
NCI-H226 lung = system: NCI-H226 lung
MALME-3M melanoma = system: MALME-3M melanoma
MCF7 breast = system: MCF7 breast
SK-MEL-28 melanoma = system: SK-MEL-28 melanoma
LOX IMVI melanoma = system: LOX IMVI melanoma
OVCAR-4 ovarian = system: OVCAR-4 ovarian
PC-3 prostate = system: PC-3 prostate
SK-MEL-2 melanoma = system: SK-MEL-2 melanoma
MOLT-4 leukemia = system: MOLT-4 leukemia
U251 CNS = system: U251 CNS
COLO 205 colon = system: COLO 205 colon
HOP-62 NSCLC = system: HOP-62 NSCLC
IGROV1 ovarian = system: IGROV1 ovarian
NCI-H23 lung = system: NCI-H23 lung
SF-539 CNS = system: SF-539 CNS
A498 renal = system: A498 renal
MDA-MB-231 breast = system: MDA-MB-231 breast
786-0 renal = system: 786-0 renal
KM12 colon = system: KM12 colon
HCC-2998 colon = system: HCC-2998 colon
HT29 colon = system: HT29 colon
HCT-15 colon = system: HCT-15 colon
SK-OV-3 ovarian = system: SK-OV-3 ovarian
M14 melanoma = system: M14 melanoma
OVCAR-8 ovarian = system: OVCAR-8 ovarian
NCI/ADR-RES ovarian = system: NCI/ADR-RES ovarian
UO-31 renal = system: UO-31 renal
HS 578T breast = system: HS 578T breast
SNB-75 CNS = system: SNB-75 CNS
SF-295 CNS = system: SF-295 CNS
HOP-92 NSCLC = system: HOP-92 NSCLC
RPMI-8226 leukemia = system: RPMI-8226 leukemia

Compound: CCOC(=O)C1=C(C)NC(C)=C(C(=O)OCC)C1c1cc(Br)c(O)c(OC)c1
- GI50 (DU-145 prostate): 3.88 µM
- TGI (DU-145 prostate): 13.1 µM
- GI50 (OVCAR-5 ovarian): 4.32 µM
- TGI (OVCAR-5 ovarian): 15.9 µM
- GI50 (CCRF-CEM leukemia): 3.37 µM
- TGI (CCRF-CEM leukemia): 15.7 µM
- GI50 (SW-620 colon): 4.12 µM
- TGI (SW-620 colon): 16.3 µM
- GI50 (NCI-H522 lung): 4.22 µM
- TGI (NCI-H522 lung): 20.1 µM
- GI50 (SNB-19 CNS): 4.25 µM
- TGI (SNB-19 CNS): 16.8 µM
- GI50 (SR leukemia): 2.01 µM
- TGI (SR leukemia): 21.2 µM
- GI50 (UACC-257 melanoma): 12.6 µM
- TGI (UACC-257 melanoma): 31.4 µM
- GI50 (HL-60(TB) leukemia): 2.35 µM
- TGI (HL-60(TB) leukemia): 6.35 µM
- GI50 (UACC-62 melanoma): 4.71 µM
- TGI (UACC-62 melanoma): 17 µM
- GI50 (SN12C renal): 6.07 µM
- TGI (SN12C renal): 22.5 µM
- GI50 (RXF 393 renal): 1.98 µM
- TGI (RXF 393 renal): 6.05 µM
- GI50 (A549 NSCLC): 4.11 µM
- TGI (A549 NSCLC): 18.8 µM
- GI50 (NCI-H460 lung): 3.98 µM
- TGI (NCI-H460 lung): 14.4 µM
- GI50 (BT-549 breast): 2.8 µM
- TGI (BT-549 breast): 10.6 µM
- GI50 (CAKI-1 renal): 4.79 µM
- TGI (CAKI-1 renal): 30.8 µM
- GI50 (HCT-116 colon): 3.97 µM
- TGI (HCT-116 colon): 13.5 µM
- GI50 (OVCAR-3 ovarian): 2.34 µM
- TGI (OVCAR-3 ovarian): 5.15 µM
- GI50 (EKVX NSCLC): 7.65 µM
- TGI (EKVX NSCLC): 34.4 µM
- GI50 (T-47D breast): 8.53 µM
- TGI (T-47D breast): 46.6 µM
- GI50 (SF-268 CNS): 5.36 µM
- TGI (SF-268 CNS): 22.4 µM
- GI50 (TK-10 renal): 9.54 µM
- TGI (TK-10 renal): 39.2 µM
- GI50 (ACHN renal): 5.56 µM
- TGI (ACHN renal): 22 µM
- GI50 (MDA-MB-435): 1.85 µM
- TGI (MDA-MB-435): 6.2 µM
- GI50 (SK-MEL-5 melanoma): 3.61 µM
- TGI (SK-MEL-5 melanoma): 14.6 µM
- GI50 (NCI-H226 lung): 2.77 µM
- TGI (NCI-H226 lung): 12.4 µM
- GI50 (MALME-3M melanoma): 10.6 µM
- TGI (MALME-3M melanoma): 32.7 µM
- GI50 (MCF7 breast): 4.41 µM
- TGI (MCF7 breast): 23.9 µM
- GI50 (SK-MEL-28 melanoma): 4.32 µM
- TGI (SK-MEL-28 melanoma): 16.7 µM
- GI50 (LOX IMVI melanoma): 5.23 µM
- TGI (LOX IMVI melanoma): 18.6 µM
- GI50 (OVCAR-4 ovarian): 5.97 µM
- TGI (OVCAR-4 ovarian): 37 µM
- GI50 (PC-3 prostate): 3.62 µM
- TGI (PC-3 prostate): 27.2 µM
- GI50 (SK-MEL-2 melanoma): 5.29 µM
- TGI (SK-MEL-2 melanoma): 20.1 µM
- GI50 (MOLT-4 leukemia): 3.61 µM
- TGI (MOLT-4 leukemia): 52.4 µM
- GI50 (U251 CNS): 4.01 µM
- TGI (U251 CNS): 15.6 µM
- GI50 (COLO 205 colon): 10.3 µM
- TGI (COLO 205 colon): 22.9 µM
- GI50 (HOP-62 NSCLC): 4.37 µM
- TGI (HOP-62 NSCLC): 14.7 µM
- GI50 (IGROV1 ovarian): 7.39 µM
- TGI (IGROV1 ovarian): 37.2 µM
- GI50 (NCI-H23 lung): 4.81 µM
- TGI (NCI-H23 lung): 22.4 µM
- GI50 (SF-539 CNS): 2.64 µM
- TGI (SF-539 CNS): 7.07 µM
- GI50 (A498 renal): 2.19 µM
- TGI (A498 renal): 7.13 µM
- GI50 (MDA-MB-231 breast): 6.15 µM
- TGI (MDA-MB-231 breast): 20.4 µM
- GI50 (786-0 renal): 4.01 µM
- TGI (786-0 renal): 18 µM
- GI50 (KM12 colon): 3.74 µM
- TGI (KM12 colon): 14 µM
- GI50 (HCC-2998 colon): 3.12 µM
- TGI (HCC-2998 colon): 10.8 µM
- GI50 (HT29 colon): 4.72 µM
- TGI (HT29 colon): 18.2 µM
- GI50 (HCT-15 colon): 3.65 µM
- TGI (HCT-15 colon): 14.2 µM
- GI50 (SK-OV-3 ovarian): 2.92 µM
- TGI (SK-OV-3 ovarian): 7.38 µM
- GI50 (M14 melanoma): 3.05 µM
- TGI (M14 melanoma): 10.1 µM
- GI50 (OVCAR-8 ovarian): 4.47 µM
- TGI (OVCAR-8 ovarian): 38.9 µM
- GI50 (NCI/ADR-RES ovarian): 2.71 µM
- TGI (NCI/ADR-RES ovarian): 9.4 µM
- GI50 (UO-31 renal): 4.55 µM
- TGI (UO-31 renal): 25.2 µM
- GI50 (HS 578T breast): 2.54 µM
- TGI (HS 578T breast): 9.47 µM
- GI50 (SNB-75 CNS): 1.85 µM
- TGI (SNB-75 CNS): 7.14 µM
- GI50 (SF-295 CNS): 2.89 µM
- TGI (SF-295 CNS): 10.5 µM
- GI50 (HOP-92 NSCLC): 1.82 µM
- TGI (HOP-92 NSCLC): 12.3 µM
- GI50 (RPMI-8226 leukemia): 4.52 µM
- TGI (RPMI-8226 leukemia): 41.4 µM
